{
  "source": "patent US20160375088A1",
  "about": "“CARDIOLIPIN-TARGETED PEPTIDES INHIBIT BETA-AMYLOID OLIGOMER TOXICITY” (priority 2013, published 2016)",
  "key": {"Aβ1-42 oligomers [1]": {"biological_target": "T1, Aβ1-42 oligomers (Homo sapiens, UniProt P05067)", "T1 sequence (P05067 672-713 limits assumed)": "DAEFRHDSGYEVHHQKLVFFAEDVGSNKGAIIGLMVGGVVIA", "experiment": "Turbidity (right-angle light scattering at 633 nm) of peptides with Aβ1-42 oligomers", "design": "purchased Life Technologies", "conditions": "40 μM Aβ, Hepes pH 7.4", "protocol": "Turbidity Measurements of Aromatic-Cationic Peptides Complexed with Aβ1-42 Oligomers: The turbidity of solutions containing aromatic-cationic peptides and/or Aβ1-42 oligomers was measured via right-angle scattering at λ=633 nm (Hitachi F-4500 Fluorescent Spectrophotometer). All experiments were conducted in Hepes (pH 7.4) and scanned immediately."}, "Aβ1-42 oligomers [2]": {"biological_target": "T1, Aβ1-42 oligomers", "experiment": "Fluorescence emission spectra: interaction of peptide with Aβ1-42 oligomers", "assay_type": "binding", "design": "purchased Life Technologies", "conditions": "for shift of emission on contact with Aβ oligomers: 1 μM Aβ oligomers; for emission maximum (λmax) with Aβ oligomers: 20 mM Hepes pH 7.4, 1 μM Aβ oligomers", "from_the_text": "Interaction of Aromatic-cationic Peptides with Aβ1-42 Oligomers:\nD-Arg-2′,6′-Dmt-Lys-Ald-NH2 ([ald]SS-31) is an aladan (ald) containing derivative of D-Arg-2′,6′-Dmt-Lys-Phe-NH2 (SS-31). See Birk et al., J Am Soc Nephrol. 24(8): 1250-1261 (2013). […] Thus, interaction between D-Arg-2′,6′-Dmt-Lys-Ald-NH2 ([ald]SS-31) and phospholipids causes an observable shift in the fluorescence spectra of the peptide. See Birk et al., J Am Soc Nephrol. 24(8): 1250-1261 (2013). […] The fluorophore aladan was used as a control. All experiments were conducted in 20 mM Hepes (pH 7.4) so as to replicate an environment with physiological pH."}, "[3]": {"biological_target": "T2, Aβ1-42-Cardiolipin-Cu^2+ complex (Homo sapiens, UniProt P05067)", "T2 construct": "purchased Life Technologies", "T2 sequence (P05067 672-713 limits assumed, one chain of several)": "as the sequence (P05067 672-713 limits assumed) above", "experiment": "Aβ1-42-Cardiolipin-Cu2+ complex oxygenase activity (Amplex Red, no H2O2)", "assay_type": "biochemical", "conditions": "for increase in Aβ1-42-mediated oxygenase activity compared to the non-metal treated control: 10 μM metal salt incubated with cardiolipin and Aβ1-42 oligomers; for reduction in Aβ1-42-mediated oxygenase activity compared to untreated controls: 10 μM peptide, 30 μM CuCl2, 50 μM Amplex Red; for reduction in Aβ1-42-mediated oxygenase activity compared to untreated controls / inhibition of Aβ1-42-mediated oxygenase activity compared to untreated controls: 30 μM TLCL; for inhibition of Aβ1-42-mediated oxygenase activity compared to untreated controls: 100 μM peptide; for inhibition of Cu2+-dependent stimulation of Aβ1-42-mediated oxygenase activity, dose dependence: FIG. 4B, varying peptide concentrations", "protocol": "Oligomerization of Aβ1-42 Peptide: Aβ1-42 peptide was dissolved in 1.5 mL of a 1:1 water/acetonitrile solution. 500 μL aliquots were frozen in a methanol/dry ice cooling bath and then lyophilized. Once lyophilized, each aliquot was dissolved in 20 μL DMSO. The aliquots were then vortexed, centrifuged, and sonicated in a water bath at room temperature. 200 μL of filtered 1×PBS and 20 μL of 2% SDS were subsequently added. The Aβ1-42 peptide solution was incubated at 37° C. for 6 hours. 580 μL of water was subsequently added to the Aβ1-42 peptide solution, followed by a 16 hour incubation at 37° C. prior to being stored at 4° C.\nMeasurement of Aβ1-42-Cardiolipin-Cu^2+ Complex Oxygenase Activity:\nAβ1-42-Cardiolipin-Cu^2+ oxygenase activity was measured using the Amplex Red kit. Amplex Red is a dye that reacts with H2O2 in a 1:1 stoichiometric ratio to produce a highly fluorescent derivative called resorufin (λex/λem=570/585 nm). The presence of peroxidase activity in an Amplex reaction lacking H2O2 is an indicator of oxygenase activity resulting from the reaction between the Amplex Red reagent and oxygen in the solution. All experiments were conducted in the absence of H2O2. A measurement was immediately taken after the introduction of Amplex Red, the last reagent that was added to the reaction. The reaction was allowed to proceed for an additional 10 minutes. Continuous time course data over the 10-minute period was obtained using a microplate spectrofluorometer (Molecular Devices, Sunnyvale, Calif.)."}, "Aβ1-42 oligomers [4]": {"biological_target": "T1, Aβ1-42 oligomers", "experiment": "Transmission electron microscopy of Aβ fibril formation"}, "[5]": {"conditions": "800 nM Aβ oligomers, 30 μM CuCl2"}},
  "data": [
    {"compound": "CN(C)c1ccc2cc(C(=O)CC(N)C(=O)O)ccc2c1", "note": "(stereo not drawn) [Ald, β-(6′-dimethylamino-2′-naphthoyl)alanine, reference compound]", "values": [
      {"measurement": "change in light scattering (turbidity) compared to Aβ1-42 oligomer control sample", "setting": "Aβ1-42 oligomers [1]", "value": "no change in turbidity"},
      {"measurement": "light scattering", "setting": "Aβ1-42 oligomers [1]", "value": "about 180 RFUs"},
      {"measurement": "shift of emission on contact with Aβ oligomers", "setting": "Aβ1-42 oligomers [2]", "value": "no shift"},
      {"measurement": "emission maximum (λmax) with Aβ oligomers", "setting": "Aβ1-42 oligomers [2]; 1 μM, λex=360 nm", "value": 535, "unit": "nm"}
    ]},
    {"compound": "O=[N+]([O-])[O-].O=[N+]([O-])[O-].[Cu+2]", "note": "[Cu(NO3)2, copper (II) nitrate hydrate, reference compound]", "values": [
      {"measurement": "increase in Aβ1-42-mediated oxygenase activity compared to the non-metal treated control", "setting": "[3]", "value": 500, "unit": "%"}
    ]},
    {"compound": "[Cl][Cu][Cl]", "note": "[CuCl2, copper (II) chloride, reference compound]", "values": [
      {"measurement": "increase in Aβ1-42-mediated oxygenase activity compared to the non-metal treated control", "setting": "[3]", "value": "> 500", "unit": "%"}
    ]},
    {"compound": "CCCCCC=CCC=CCCCCCCCC(=O)OCC(COP(=O)(O)OCC(O)COP(=O)(O)OCC(COC(=O)CCCCCCCC=CCC=CCCCCC)OC(=O)CCCCCCCC=CCC=CCCCCC)OC(=O)CCCCCCCC=CCC=CCCCCC", "note": "(stereo not drawn) [TLCL, 1,1′,2,2′-tetralinoleoyl cardiolipin, reference compound]", "values": [
      {"measurement": "stimulation of Aβ1-42-mediated oxygenase activity in the presence of Cu2+ ions by phospholipid", "setting": "[3]; [5]", "value": "capable of stimulating"}
    ]},
    {"compound": "D-Arg-2′,6′-Dmt-Lys-Ald-NH2 [[ald]SS-31]", "values": [
      {"measurement": "reduction in Aβ1-42-mediated oxygenase activity compared to untreated controls", "setting": "[3]; 800 nM Aβ oligomers", "value": 90, "unit": "%"},
      {"measurement": "inhibition of Aβ1-42-mediated oxygenase activity compared to untreated controls", "setting": "[3]; [5]", "value": "complete inhibition"},
      {"measurement": "inhibition of Cu2+-dependent stimulation of Aβ1-42-mediated oxygenase activity, dose dependence", "setting": "[3]", "value": "dose dependent"},
      {"measurement": "incubation time resulting in formation of Aβ fibrils", "setting": "Aβ1-42 oligomers [4]; natural fibrillation takes at least seven days", "value": 25, "unit": "min"},
      {"measurement": "increase in the rate of fibril formation", "setting": "Aβ1-42 oligomers [4]; versus natural fibrillation", "value": 400, "unit": "fold"},
      {"measurement": "change in light scattering (turbidity) compared to Aβ1-42 oligomer control sample", "setting": "Aβ1-42 oligomers [1]", "value": "six-fold increase"},
      {"measurement": "shift of emission on contact with Aβ oligomers", "setting": "Aβ1-42 oligomers [2]", "value": "blue shift"},
      {"measurement": "emission maximum (λmax) with Aβ oligomers", "setting": "Aβ1-42 oligomers [2]; 1 μM, λex=360 nm", "value": 465, "unit": "nm"},
      {"measurement": "emission maximum (λmax) before Aβ oligomers", "setting": "Aβ1-42 oligomers [2]; 1 μM, λex=360 nm, 20 mM Hepes pH 7.4, no Aβ", "value": 535, "unit": "nm"}
    ]},
    {"compound": "D-Arg-2′,6′-Dmt-Lys-Phe-NH2 [SS-31]", "values": [
      {"measurement": "reduction in Aβ1-42-mediated oxygenase activity compared to untreated controls", "setting": "[3]; 800 nM Aβ oligomers", "value": 90, "unit": "%"},
      {"measurement": "inhibition of Aβ1-42-mediated oxygenase activity compared to untreated controls", "setting": "[3]; [5]", "value": "complete inhibition"},
      {"measurement": "inhibition of Cu2+-dependent stimulation of Aβ1-42-mediated oxygenase activity, dose dependence", "setting": "[3]", "value": "dose dependent"},
      {"measurement": "change in light scattering (turbidity) compared to Aβ1-42 oligomer control sample", "setting": "Aβ1-42 oligomers [1]", "value": "no change in turbidity"},
      {"measurement": "light scattering", "setting": "Aβ1-42 oligomers [1]", "value": "about 180 RFUs"}
    ]}
  ]
}
